Where “and” joins values, the source holds several entries; their conditions need not be identical. Identical values can stand only once.
Tests used:
[1] = in vitro; conditions: both, human, s9
[2] = HPβCD-FL118 complex dissolution test; format: physicochemical; conditions: 37° C.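 Further: 20 mL buffer stirred at 100 rpm.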
Protocol: The collected samples were analyzed for the concentrations of the supernatants by HPLC.

[3] = Blood partitioning; conditions: human whole blood
[4] = test system: CYP1A2 mRNA; assay: CYP induction (mRNA) in fresh human hepatocytes; conditions: human, 3 days, 50 µM
Excerpt: (§1) (2) CYP positive inducers (Table 58a) and Williams' Medium E (WME) were purchased from Sigma-Aldrich (St. Louis, MO, USA). Dulbecco's phosphate-buffered saline (DPBS, pH 7.4) was purchased from Invitrogen (Carlsbad, CA, USA). Hepatocyte culture medium (serum-free) for CYP induction was purchased from XenoTech (catalog #K2300, Lenexa, KS, USA). The CellTiter 96 AQueous ONE Solution Cell Proliferation Assay was obtained from Promega (Madison, WI, USA). All other chemicals and reagents were of analytical grade or higher. (3) Fresh human hepatocytes (Table 58b) seeded at ˜0.15 million cells/well in 48-well plates (˜0.75 million cells/mL) were purchased from Thermo Fisher Scientific (Grand Island, NY, USA) and BioreclamationIVT (Baltimore, MD, USA).
(§2) Vehicle controls were treated in parallel with hepatocyte culture medium. […] (2) After the CYP induction treatment, the cells were used for a cell viability assay. […] The absorbance of formazan, which is proportional to the number of viable cells, was measured spectrophotometrically using the CellTiter 96 AQueous ONE Solution Cell Proliferation Assay. […] (3) Total RNA was isolated from the treated cells using the RNeasy mini kit (Qiagen, Valencia, CA, USA) and treated with RNase-free DNase (Qiagen) following the manufacturer's protocols. The concentration of RNA was determined using a Qubit Fluorometer with a Qubit RNA HS assay kit (Invitrogen). cDNA was synthesized from up to 1 μg of the total RNA harvested from the cells using a QuantiTect RT kit (Qiagen). Analysis of gene expression by qPCR was performed using the LightCycler 480 System (Roche Diagnostics Corporation, Indianapolis, IN, USA).

[5] = test system: CYP2B6 mRNA; assay: CYP induction (mRNA) in fresh human hepatocytes; conditions: human
Excerpt: as §1, §2

[6] = test system: human hepatocytes; assay: Cell viability (MTS) after CYP induction treatment; conditions: donor 2, control inducers (OME, PB, RIF)
Protocol: as §2

[7] = test system: L5178Y TK+/− mouse lymphoma cells; assay: Mouse Lymphoma Assay (MLA); conditions: for Avg. MF (Mutant Frequency) / Avg. SG: 24 h treatment, −S9
Protocol: The cells were prepared in Fischer's or RPMI media supplemented with 10% heat-inactivated horse serum, penicillin-streptomycin, Lglutamine, sodium pyruvate and Pluronic F68. In the initial assay, prior to use in the test, the culture was purged of preexisting TK−/− mutations by exposure to THMG treated medium for 1 day, followed by a transfer to THG medium for 1 to 2 days. This was performed 5 to 8 days prior to testing. In the expanded assay a vial of frozen cells was thawed and used within 5 to 8 days of growth. No washing was needed because the cells were purged of preexisting TK−/− mutations by exposure to THMG treated medium for 1 day and then THG medium for 1 day prior to freezing. […] Colonies were counted using an automated colony counter or manually. After 4 or 24 hours of exposure, the cells were grown for recovery and expression for approximately 48 hours before plated in TFT cloning media. A second set of plates were prepared without TFT to assess viability of cells following treatment. […] Colonies observed on the TFT plate were defined as small or large colonies. […] (3) Of note, the metabolic activation system in this assay consisted of a rat liver homogenate (S-9 microsomal fraction), which was delivered to the test system in the presence of a core mix consisting of NADP and cofactors for NADPH-supported oxidation. The S9 was prepared using the following recipe (per treatment tube); 1 mL of 20 mg/mL S9, 32 mg of NADP, 60 mg of isocitric acid, 40 μL of calcium chloride (CaCl2) and 3.0 mL of cell cultural media. All treatments were performed in duplicate. The treatment tubes were placed in a CO2 incubator at 37±1° C. with continuous agitation.

[8] = in vitro
[9] = Liver microsome stability; conditions: human liver microsome; control compound

## O=c1ccc2ccc(O)cc2o1 [7-hydroxycoumarin, reference compound]
[1]
  microsomal CLint: 57.3 µL/min/mg

## CC[C@@]1(O)C(=O)OCc2c1cc1n(c2=O)Cc2cc3cc4c(cc3nc2-1)OCO4 [API]
[2]; pH 1.2, 5 min
  Concentration (dissolution): 430 ng/mL
[2]; pH 1.2, 10 min
  Concentration (dissolution): 1550 ng/mL
[2]; pH 1.2, 15 min
  Concentration (dissolution): 470 ng/mL
[2]; pH 1.2, 30 min
  Concentration (dissolution): 640 ng/mL
[2]; pH 1.2, 45 min
  Concentration (dissolution): 510 ng/mL
[2]; pH 1.2, 60 min
  Concentration (dissolution): 1430 ng/mL
[2]; pH 1.2, 90 min
  Concentration (dissolution): 1360 ng/mL
[2]; pH 1.2, 120 min
  Concentration (dissolution): 4470 ng/mL
[2]; pH 6.8, 5 min
  Concentration (dissolution): 960 ng/mL
[2]; pH 6.8, 10 min
  Concentration (dissolution): 190 ng/mL
[2]; pH 6.8, 15 min
  Concentration (dissolution): 310 ng/mL
[2]; pH 6.8, 30 min
  Concentration (dissolution): 1110 ng/mL
[2]; pH 6.8, 45 min
  Concentration (dissolution): 310 ng/mL
[2]; pH 6.8, 60 min
  Concentration (dissolution): 900 ng/mL
[2]; pH 6.8, 90 min
  Concentration (dissolution): 970 ng/mL
[2]; pH 6.8, 120 min
  Concentration (dissolution): 1430 ng/mL

## NS(=O)(=O)c1cc(C2(O)NC(=O)c3ccccc32)ccc1Cl (centres unmarked) [Chlorthalido]
[3]
  RBC to Plasma Partitioning (KRBC/P): 19.7

## COc1ccc2[nH]c([S+]([O-])Cc3ncc(C)c(OC)c3C)nc2c1 (centres unmarked) [Omeprazole (OME), Omeprazole, reference compound]
[4]
  % of OME-treated Cells: 100%

## CCC1(c2ccccc2)C(=O)NC(=O)NC1=O [Phenobarbital (PB), Phenobarbital, reference compound]
[5]
  % of PB-treated Cells: 100%

## CO[C@H]1/C=C/O[C@@]2(C)Oc3c(C)c(O)c4c(O)c(c(/C=N/N5CCN(C)CC5)c(O)c4c3C2=O)NC(=O)/C(C)=C\C=C\[C@H](C)[C@H](O)[C@@H](C)[C@@H](O)[C@@H](C)[C@H](OC(C)=O)[C@@H]1C [Rifampicin (RIF), Rifampicin, reference compound]
[6]
  Formazan Absorbance Mean: 1.37

## CC[C@@]1(O)C(=O)OCc2c1cc1n(c2=O)Cc2cc3cc4c(cc3nc2-1)OCO4 [Test Article]
[7]; Test Article 0.1 uM
  Avg. MF (Mutant Frequency): 345 mutants/1×10^6 cells
  Avg. SG: 29.1
[7]; Test Article .01 uM
  Avg. MF (Mutant Frequency): 125 mutants/1×10^6 cells
  Avg. SG: 66.2

## O=P1(N(CCCl)CCCl)NCCCO1 (centres unmarked) [cyclophosphamide (CP), cyclophosphamide]
[7]; 4 h, +S9, 15 μg/mL
  Average SG: 7.3
  Day 1 Growth Cell Conc.: 4.79E+05 Cell/mL and 5.44E+05 Cell/mL
  Day 2 Growth Cell Conc.: 1.29E+06 Cell/mL and 1.30E+06 Cell/mL
  Relative Suspension Growth (%): 52.7% and 58.8%
  Suspension Growth (SG): 5.9 and 7.7
[7]; 4 h, +S9, 17.5 μg/mL
  Average SG: 4.9
  Day 1 Growth Cell Conc.: 3.20E+05 Cell/mL and 3.86E+05 Cell/mL
  Day 2 Growth Cell Conc.: 1.14E+06 Cell/mL and 1.25E+06 Cell/mL
  Relative Suspension Growth (%): 32.1% and 42.0%
  Suspension Growth (SG): 4.2 and 5.5
[7]; 4 h summary, +S9, 15 μg/mL
  Avg. % of IMF Small Colony: 62.1%
  Avg. IMF: 1000 ×10^−6
  Avg. IMF Small Colony: 621 ×10^−6
  Avg. RTG: 21.6%
[7]; 4 h summary, +S9, 17.5 μg/mL
  Avg. % of IMF Small Colony: 58.6%
  Avg. IMF: 1513 ×10^−6
  Avg. IMF Small Colony: 880 ×10^−6
  Avg. RTG: 6.7%

## COS(C)(=O)=O [methyl methanesulfonate (MMS), methyl methanesulfonate]
[7]; mouse, 24 h, 5 μg/mL
  Average SG: 48.2
  Avg. % of IMF Small Colony: 52.4%
  Avg. IMF (Induced Mutant Frequency): 458 mutants/1×10^6 cells
  Avg. IMF Small Colony: 240 mutants/1×10^6 cells
  Avg. RTG (Relative Total Growth): 38.7%
  Relative Suspension Growth (%): 62.5%
[7]; mouse, 24 h, 8 μg/mL
  Average SG: 26.2
  Avg. % of IMF Small Colony: 54.7%
  Avg. IMF (Induced Mutant Frequency): 750 mutants/1×10^6 cells
  Avg. IMF Small Colony: 417 mutants/1×10^6 cells
  Avg. RTG (Relative Total Growth): 15.5%

## C[C@]12CC[C@H]3[C@@H](CCC4=CC(=O)CC[C@@]43C)[C@@H]1CC[C@@H]2O [testosterone, reference compound]
[8]; both, human, hepatocytes, pH 7.4
  hepatocyte CLint: 212 µL/min/1e6 cells
[8]; cryopreserved human hepatocytes, control compound
  half-life: 2.2 min
[9]
  CLint: 0.0478 ml/min/mg protein
  half-life: 29 min
[1]
  microsomal CLint: 20.7 µL/min/mg
